The values below come from paper PMC4727417, “Characterization of a novel 8R,11S-linoleate diol synthase from Penicillium chrysogenum by identification of its enzymatic products” (Journal of Lipid Research, 2016).

Data set [1] concerns the target T1, 8R,11S-linoleate diol synthase (8R,11S-LDS; PC_1) (Penicillium rubens, UniProt B6HQI5).
T1 construct: gene Pc22g06980; full length, 1,074 residues, C-terminal His6 (pET-21a), E. coli ER2566, HisTrap purified; calculated 120,998 Da; N-terminal DOX domain 1-669, C-terminal P450 hydroperoxide isomerase domain 670-1074
Briefly: O2 uptake, Clark-type oxygen monitor, Hanes-Woolf plot. As to conditions: DOX activity (N-terminal dioxygenase domain of the whole enzyme); co-substrate O2; 50 mM EPPS pH 8.0, 25°C. The format is biochemical.

Data set [2] deals with T1, 8R,11S-linoleate diol synthase (8R,11S-LDS; PC_1). Nature of the data set: HPLC of dihydroxy fatty acid product, Hanes-Woolf plot. Particulars: whole enzyme activity: overall conversion to dihydroxy fatty acid by sequential DOX and hydroperoxide isomerase domains; 25°C, 50 mM EPPS pH 8.0. The format is biochemical.
Data set [3] has the same target. Nature of the data set: UV-visible spectroscopy, heme/protein absorption ratio (A410/A280). Particulars: heme occupancy of the purified enzyme. The format is binding.
Substrate in data set [4]: CCCCCC/C=C\CCCCCCCC(=O)O
Briefly: O2 uptake, Clark-type oxygen monitor, Hanes-Woolf plot. Format: biochemical, Penicillium rubens. Particulars: DOX activity (N-terminal dioxygenase domain of the whole enzyme), co-substrate O2, 50 mM EPPS pH 8.0, 25°C.

In general, Km refers to the substrate concentration at which the rate is half of its maximum. For the molecule `CCCCCCCC/C=C\CCCCCCCC(=O)O` [oleic acid], the Km in data set [1] worked out at 34.3 ± 1.2 µM.

Turning to `CCCCC/C=C\C/C=C\CCCCCCCC(=O)O` [linoleic acid], the Km in data set [1] was found to be 18.9 ± 0.6 µM; in data set [2], 86.1 ± 1.8 µM.

Consider `C=CC1=C(C)C2=Cc3c(C=C)c(C)c4[n]3[Fe][n]3c(c(C)c(CCC(=O)O)c3=CC3=NC(=C4)C(C)=C3CCC(=O)O)=CC1=N2` [heme], for which the “UV-visible spectroscopy, heme/protein absorption ratio (A410/A280)” value in data set [3] is “Heme occupancy of the wild-type and H999A, C1001S, and H999A-C1001S variant enzymes”.

As for `CC/C=C\C/C=C\C/C=C\CCCCCCCC(=O)O` [α-linolenic acid], the Km worked out at 69.9 ± 0.3 µM in data set [1] and 138 ± 3.2 µM in data set [2].

B1: 8R,11S-linoleate diol synthase (8R,11S-LDS; PC_1) (Penicillium rubens Wisconsin 54-1255) (protein)
chain: MAEKESNSSGKIAQLEQVVAAALRPLPTQTGDGSYVQEPTVTGLAKDLLNFDLKDAKTLADMAKTAVTGKAVNDRDYIMERVIQLASGLPSTSRNGKELTNTFLTQLWGDLEHPPISYLGRDAAYRKADGSGNNTFWPQIGAANTPYARSVRPKTMQPVALPEPEALFDSLLARKDFKEHPNKISSVLFHLASIIIHDLFQTDPRDQTKSLTSSYLDLSPLYGNNQKEQDTVRAFKDGKLKPDCFSTKRVLGFPPGVGVILIMFNRFHNSVVTQLAAINEGGRFTKPDESNAEAYATWDNDLFQTARLVTCGLYINIILKDYVRTILNVNRTDSLWSLDPRADIRDGLLGEAPAQATGNQVSAEFNLVYRWHSCVSSRDEKWSEDLYKEIFDGKDPKEISMQQFTGGLRQWESKLPADPQERPFAKLQRQADGKFDDNDLVKIFEESVEDPAGAFGALNVPDVFRGIEVLGIKQARSWNLATLNEFRQYFGLAAYQTFEEINPDPYVANQLKHFYDHPDLVELYPGLVVEETKQAMTPGSGLCTNFTTSRAILSDAVALVRGDRFYTVDFTPKHLTNWAFNEINNDVSVDGGQVFYKLILKAFPNHFRGDSVYAHFPLVVPDENKKILTSLGKVKTYSFDRPFYKAPPLFINSHSACTKILKDQEGFKVVWGEKIQFLMENSGRPYGRDFALSGDLPANAASRKMIGAALHRDKWESEVKAFYEDITLKLLERNSFKVAGVNQVDIVRDVAVLAQVNFCANVFSLSLKTESNPRGVFSEQELYQILAVIFASIFYDVDVSKSLQLCQTARNVAQQLGELTLANVELVAKTGFISNLVNRLHRHDILSEYGIHMIQRLLDSQLPVKDVVWSHILPTAGALVANQGQLFSQCIDYYLSEEAAEHLAEIQRLSREDTPEADELLVRYFMEGARLRCSVALPRFATKPTVVDDNGKRVTLKAGQEIICNLVVAGRDPVAFPDPDKVRLDRDMSLYTHFGFGPHECLGVKMCPLALSTMLKVLGRLDNVRRAPGPQGHLKRLDGLGGIAMYMDAEHSSFSPFPMTMKIQWDGDLPARRE
notes: full length, 1,074 residues, C-terminal His6 (pET-21a), E. coli ER2566, HisTrap purified; calculated 120,998 Da; N-terminal DOX domain 1-669, C-terminal P450 hydroperoxide isomerase domain 670-1074
In general, kcat refers to the number of substrate molecules converted per active site and unit of time at saturation. Usually kcat/Km stands for the second-order rate constant that governs catalysis at low substrate concentration. Turning to B1, in data set [4], the Km amounted to 20.0 ± 0.5 µM, the kcat was 81.8 ± 3.77 s⁻¹ and the kcat/Km was found to be 4.32e+06 M⁻¹ s⁻¹.
